Reference: patent US12108756B2, “Photodynamic method of inhibiting growth of a microbial plant pathogen” (priority 2019, dated 2024)

How the values were obtained:
[1] = test system: E. coli; test: E. coli kill with photosensitizers with and without copper under broad-spectrum Reptile Light; format: cell-based, Escherichia coli; conditions: for effectiveness as photosensitizer: as shown in Example 2, under the test conditions; for log reduction: Reptile Light 8,520 Lux (26 W/m2)
Experimental: In this example we compare different photosensitizers (50 μM in water) in combination with and without copper sulfate. An agricultural adjuvant sticker spreader, Silwet® L-77 was also included at a 0.0125% concentration. The conditions experimental were the same as Example 1: E. coli as the test organism, using copper sulfate at 10 ppm, and a light exposure time of 30 minutes. However, in this test series we used a light source that reproduced the spectrum of sunlight, including UV. It is used to in terrariums for housing reptiles, some of which require a UV component in their light. It is referred to here as the Reptile Light (Zoo Med 2019).
In this example we also used the Reptile Light. In these tests the light intensity was 8,520 Lux, or 26 W/m2 (for comparison, this could be full daylight on a cloudy day, or a common light level in a greenhouse). […] Silwet (see Helena 2019) is an agricultural nonionic organosilicone surfactant adjuvant wetting and spreading agent commonly used with pesticides, also commonly known as a sticker spreader).
In this example we tested a commercial algicide product, Cutrine®, which contains copper ethanolamine (from the product label: Copper Ethanolamine Complex, Mixed (Mono CAS #14215-52-2 and Tri CAS #82027-59-6) 27.9%; OTHER INGREDIENTS 72.1% TOTAL 100.0% Metallic copper equivalent, 9%; Contains 0.909 lbs. of elemental copper per gallon) (EPA Reg. No. 8959-10). Copper ethanolamine is effective in keeping the copper salt in solution at neutral pH. The tests were done as above, under the reptile light for 30 minutes.
The above tests using CuSO4 at 10 ppm is equivalent to 3.98 ppm copper. We initially tested Cutrine® at a low and a high concentration, where the low concentration is adjusted to have approximately 3.98 ppm copper as before, and the high concentration is 39.8 ppm copper (same copper concentration as 100 ppm CuSO4). We tested them with and without 18 ppm riboflavin. Again, tests were run in triplicate.

[2] = test system: Escherichia coli (E. coli) bacteria (ATCC 25922); test: Photodynamic treatment of E. coli under blue LED light; colonies plated and reduction vs untreated control; format: cell-based; conditions: for % reduction: converted from log kill
Experimental: Tests were carried out with Escherichia coli (E. coli) bacteria (ATCC 25922) in which the organisms were exposed to varying test conditions. The light source for photoactivation was a blue LED light (HIGROW 2019) that was placed 7 cm from the container containing the E. coli. The photoactivator was riboflavin (Aldrich R7649, lot VVXBB4048V, purity 98.6%) at a concentration of 18 ppm. Copper sulfate was used at a concentration of 10 ppm (aqueous solution). The tests included a wetting agent Silwet® L-77 at a concentration of 0.0125%. Silwet® L-77 is a product of Helena Agri-Enterprises, LLC of Collierville, TN, and is a nonionic organosilicone surfactant co-polymer that has enhanced wetting and spreading characteristics when used in aqueous sprays. Silwet® L-77 has a CAS Registry Number of 27306-78-1. Each test was carried out for the prescribed time, which varied from 5 minutes to 30 minutes. At the end of the exposure time the bacteria were diluted and plated so that the colonies could be enumerated and the corresponding reduction determined by comparison with the untreated control.
We also carried out tests to evaluate the effect of light intensity. These tests used 10 ppm copper sulfate and 18 ppm riboflavin (aqueous solution) in a 15-minute exposure under the blue light, using neutral density filters to decrease the light intensity. The full light intensity at the 450 nm to 460 nm range was 353 W/m^2.

[3] = test system: Xanthomonas hortorum pv. pelargonii; test: Reduction of Xanthomonas hortorum pv. pelargonii leaf spots on geranium plants in greenhouse; format: in vivo; conditions: single spray 24 hours before inoculation, leaf spots counted two weeks after inoculation
[4] = photosensitizer alone, 50 μM in water, Reptile Light, 30 minutes
[5] = photosensitizer alone, 50 μM in water, Reptile Light, 30 minutes, median (EY, RMP: average)
[6] = 10 ppm alone, blue light, 30 minutes
[7] = 10 ppm + Silwet (0.0125%), 30 minutes
[8] = 18 ppm alone, blue light, 30 minutes

| Molecule | effectiveness as photosensitizer [1] | % kill [1, 4] [%] | Log kill [1, 5] [Log] | log reduction [1, 7] [log] | also measured |
| --- | --- | --- | --- | --- | --- |
| O=C1OC2(c3ccccc31)c1cc(I)c(O)c(I)c1Oc1c2cc(I)c(O)c1I [ER, erythrosine] | effective | 25.88 | 0.13 |  |  |
| O=C1OC2(c3cc(I)c(O)c(I)c3Oc3c2cc(I)c(O)c3I)c2c(Cl)c(Cl)c(Cl)c(Cl)c21 [RB, Rose Bengal] | effective | 30.81 | 0.16 |  |  |
| O=S(=O)([O-])[O-].[Cu+2] [copper sulfate] |  |  |  | 0.13 | log kill [2, 6]: 0.954 log; % reduction [2, 6]: 88.88%; log kill ([2]; 10 ppm, in the dark, 30 minutes): 0.226 log; % kill ([1]; 10 ppm alone, reptile lamp, 30 minutes): 26.04%; Log kill ([1]; 10 ppm alone, reptile lamp, 30 minutes, median value): 0.131 Log; log reduction ([1]; 40 ppm, 30 minutes): 0.13 log |
| Cc1cc2nc3c(=O)[nH]c(=O)nc-3n(C[C@H](O)[C@H](O)[C@H](O)CO)c2cc1C [riboflavin] | most effective | 23.26 | 0.115 | 0.15 | log kill [2, 8]: 0.83 log; % reduction [2, 8]: 85.208%; log kill ([2]; 18 ppm, in the dark): did not produce any measurable kill; Log kill ([1]; 18 ppm alone, reptile lamp, 30 minutes): 0.115 Log; log reduction ([1]; 50 ppm, 1 hour): 1.6 log; log kill ([1]; riboflavin alone, reptile light, 30 minutes, from previous test data): < 1 log; effectiveness against leaf spots [3]: only partially effective |
| Eosin Y [EY] | effective | 6.46 | 0.87 |  |  |
| riboflavin monophosphate [RMP] |  | 3.17 | 0.042 |  |  |
